The values below are quoted from earlier work in patent publication EP1757570A1, “Process for obtaining a purified hydrofluoroalkane with 2 carbon atoms” (Solvay SA, priority 2005, dated 2007).

The structures appear in SMILES notation. Where two headings read alike, the source gives them in different places.

Consider `CC(C)(C#N)N=NC(C)(C)C#N` [AIBN, 2,2'-azobis(isobutyronitrile)], for which the Half life was 10 h (65 °C), 1 h (82 °C) and 0.017 h (120 °C).
Turning to `O=C(OOC(=O)c1ccccc1)c1ccccc1` [DBP, dibenzoylperoxide], the Half life is 10 h (73 °C, in solution in benzene); 1 h (92 °C, in solution in benzene); 0.017 h (131 °C, in solution in benzene).
